Data as given in patent US20150290192A1, “INHIBITORS OF BRUTON'S TYROSINE KINASE” (HOFFMANN-LA ROCHE INC., priority 2012, published 2015).
Where two headings read alike, the source gives them in different places. Marks after values point to notes of the source that are not given here.

What was measured:
[1] = test system: human mast cells (FCεRI activation); assay: Human mast cell activation, mediator release after FCεRI activation; type: cell-based; settings: N = 3 donors
Protocol: One million human cord blood derived CD34+ hematopoietic stem cells (HSCs) from different donors (AllCells #CB008F-S, Emeryville, Calif.) were cultured for eight weeks in a serum-free complete medium (StemPro-34 with supplements; Invitrogen, Carlsbad, Calif.), with recombinant h-SCF (100 ng/ml) and h-IL6 (50 ng/ml). During the first week of culturing, recombinant h-IL3 (10 ng/ml) was also included to support HSCs differentiation. After 8 weeks of culture, cells were stimulated with recombinant h-IL-4 (10 ng/ml) for 5 days. Confirmation of the mast cell differentiation process was routinely done by FACS to check for c-kit and FcsRI expression; differentiated cells were routinely more than 90% c-kit positive, FceRI positive. Differentiated mast cells were sensitized with […] anti-NP IgE (Serotec, Raleigh, N.C.) overnight at 37° C. Cells were washed and then treated with Compound 1 for 1 hour at 37° C. After treatment, cells were cross-linked with […] NP(30)-BSA (Biosearch Technologies, Novato Calif.) for 30 minutes (for histamine and lipid mediator assessment) or overnight (for cytokine assessment). Culture supernatants were collected and assayed for histamine (Oxford Biomedical Research, Rochester Hills, Mich.), PGD2 and LTC4 (Cayman Chemical Company, Ann Arbor Mich.), and IL-5 and IL-13 (Bio-Rad Bio-Plex Pro cytokine quantification kit) release as per kits' instructions. Compound 1, Compound 2 and Compound 3 reduced the release of these mediators into the supernatant in a concentration dependent manner up to 100% efficacy and the IC50 values are reported in Table 2.

[2] = test system: human B cells (BCR activation); assay: Human B cell antibody production after BCR activation; type: cell-based; settings: for IC50: Homo sapiens, B-cell, N = 3 donors
Protocol: Human total B cells were enriched with RosetteSep human B cell enrichment cocktail (#28921, Vancouver, BC) from buffy coat leukocyte packs (New York Blood Center) following manufacturer's protocol. Enriched B cell purity (around 80%) was checked by FACS with CD19+ staining. B cells were suspended (0.1 million cells/well/100 μl) in RPMI-1640 based conditional medium (50 ng/ml IL-2, 50 ng/ml IL-10, and […] anti-IgD for the activation of B cells to produce IgG/IgM; 10 ng/ml IL-4, 10 ng/ml IL-10, 25 ng/ml IL-21, and […] anti-CD40 for the activation of B cells to produce IgE) together with Compound 1 (1 nM-10 μM). Cells were cultured for 10 days (for IgG/IgM production) or 14 days (for IgE production) at 37° C. Culture supernatants were collected for IgM, IgG, and IgE analysis following Bethyl Laboratory's protocol (#E80-104, #E80-100, #E80-108, Montgomery, Tex.).

[3] = test system: OVA sensitized and challenged mice, airway eosinophilia; assay: Ovalbumin-induced allergic airway disease: allergen-induced airway eosinophilia; type: in vivo, mouse; settings: for % reduction in airway eosinophilia: Inhaled, mOVA40
Protocol: The mouse model of ovalbumin-induced allergic airway disease was employed to assess the effects of Compound 1 on allergen-induced bronchoconstriction and allergen-induced airway inflammation. Briefly, mice (male; BALB/c; 7-9 weeks of age) were immunized i.p. with […] of ovalbumin (OVA) in 0.2 ml of Alum (2% Al(OH)3 in water, Serva, Heidelberg, Germany) on days 0 and 14. Control animals received Alum only. On days 21-23, animals were exposed for 20 min to a nebulized (Proneb Ultra II, PARI Respiratory Equipment, Midlothian, Va.,) aerosol of 1% OVA (10 mg/ml) in phosphate-buffered saline (PBS), to establish the inflammatory process within the lung; or PBS alone as a control. For studies where intranasal dosing was used, mice were anesthetized with isoflurane and intranasally (i.n.) administered vehicle (20% propylene glycol) or Compound 1 (0.3 mg/kg) one hour prior to each aerosolized OVA challenge.
For studies using inhalation delivery, Compound 1 was micronized by a jet mill (MC One Jet Mill, Jetpharma USA Inc., South Plainfield, N.J.) and the dry powder aerosol was generated using a Wright dust feed dry powder aerosol generator. The micronized drug powder was packed into a cylindrical reservoir using a hydraulic press at approximately 1000 psi to produce compacted cakes of powder used as input by the Wright dust feed. The dust feed creates and aerosol that is passed through a sonic nozzle for de-agglomeration and into a cyclone to remove non-respirable particles and agglomerates. The cyclone output passed into the TSE nose-only rodent exposure system. Dose groups of mice were exposed to the aerosol test atmosphere for 5, 15, or 45 minutes. […] The particle size distribution for each exposure was evaluated by collecting aerosol samples with an eight stage cascade impactor. […] Impactor data were mathematically evaluated to determine the Mass Median Aerodynamic Diameter (MMAD) and Geometric Standard Deviation (GSD) of 6-tert-Butyl-2-[2-hydroxymethyl-3-(5-{5-[(2-methoxy-ethylamino)-methyl]-pyridin-2-ylamino}-1-methyl-6-oxo-1,6-dihydro-pyridin-3-yl)-phenyl]-3,4-dihydro-2H-isoquinolin-1-one using graphical analysis of an assumed lognormal distribution. The estimated deposited dose of Compound 1 was calculated using a minute volume for the mouse of 0.026 liters per minute and the pulmonary deposition fraction was determined from the MMAD. […]
To study the effects of Compound 1 on airway inflammation, after the three 1% OVA challenges, a final OVA challenge was given as an aerosol solution of 5% OVA in PBS (50 mg/ml) or PBS alone for 20 min. […] The lungs were lavaged and airway inflammation was evaluated as previously described by performing total and differential cell counts [Harris et al., 2012, Mucosal Immunology]. […]

IC50 ([1]; read-out: IC50 1L-13 release): 11.6 nM | IC50 ([1]; read-out: IC50 GM-CSF release): 3.77 nM | IC50 ([1]; read-out: IC50 Histamine release): 14.7 nM | IC50 ([1]; read-out: IC50 IL-5 release): 7.32 nM | IC50 ([1]; read-out: IC50 LTC4 release): 4.28 nM | IC50 ([1]; read-out: IC50 PGD2 release): 6.31 nM | IC50 ([2]; 240 h, 10 days culture, read-out: IC50 IgG production): 4.15 nM | IC50 ([2]; 240 h, 10 days culture, read-out: IC50 IgM production): 1.21 nM | IC50 ([2]; 336 h, 14 days culture, read-out: IC50 IgE production): 1.47 nM
Compound: CN1CCC(c2ccc(Nc3cc(-c4ccnc(-n5ncc6cc(C(C)(C)C)cc(F)c6c5=O)c4CO)nn(C)c3=O)nc2)CC1 [Compound 1, 6-tert-Butyl-8-fluoro-2-{3-hydroxymethyl-4-[1-methyl-5-(1′-methyl-1′,2′,3′,4′,5′,6′-hexahydro-[3,4′]bipyridinyl-6-ylamino)-6-oxo-1,6-dihydro-pyridazin-3-yl]-pyridin-2-yl}-2H-phthalazin-1-one]
reduction of levels of IgM, IgG, and IgE in the supernatant, efficacy ([2]; concentration dependent): up to 100% | % reduction in airway eosinophilia ([3]; delivered dose 0.09 mg/kg, deposited dose .003 mg/kg): 82* % | % reduction in airway eosinophilia ([3]; delivered dose 0.27 mg/kg, deposited dose .010 mg/kg): 83* % | % reduction in airway eosinophilia ([3]; delivered dose 0.81 mg/kg, deposited dose .030 mg/kg): 84* % | OVA-induced increase in the numbers of eosinophils recovered in the lavage fluid ([3]; dry powder formulation by inhalation): effectively inhibited
